Experiments:
MDA-MB-468 cells [1] = experiment: Anti-proliferative effect on MDA-MB-468 cells, IC50 (MTT); format: cell-based
Method: The compounds of the present invention were tested at different concentrations (from 1000 nM to 1 nM) to assess their ability for inhibiting the proliferation of MDAMB-468 cells. Cells were cultivated in RPMI 1640 (Welgene)+10% FBS (Gibco)+1% penicillin/streptomycin (Gibco) and cultured at 37° C. in a humidified chamber in the presence of 5% C02.
MDA-MB-468 cells cultured in 96-well cell culture plates were treated with the compounds of the present invention and incubated for 72 hours.

HepG2 cells = experiment: HepG2 cell viability assay (CCK-8); format: cell-based, human
Method: The ability to inhibit the proliferation of HepG2 cells, which are human hepatocellular carcinoma cells, was measured through the in vitro cell viability assay. Cells were cultured at 37° C. in a humidified condition in the presence of 5% CO2 using a culture medium of MEM (Welgene)+10% FBS (Gibco)+1% penicillin/streptomycin (Gibco). […] Cell viability was measured by CCK-8 method using tetrazolium salt, and the ability of the compounds according to the present invention to inhibit cancer cell proliferation was calculated.

[2] = target: recombinant purified human CDK7 kinase (Homo sapiens (Human), UniProt P50613); experiment: CDK7 kinase-inhibitory activity, ADP-Glo kinase assay; format: biochemical; conditions: ATP 90 µM, MBP substrate, 2 hours at 30° C., read-out: CDK7 inhibition(IC50 nM)
Chain of recombinant purified human CDK7 kinase (P50613 whole entry): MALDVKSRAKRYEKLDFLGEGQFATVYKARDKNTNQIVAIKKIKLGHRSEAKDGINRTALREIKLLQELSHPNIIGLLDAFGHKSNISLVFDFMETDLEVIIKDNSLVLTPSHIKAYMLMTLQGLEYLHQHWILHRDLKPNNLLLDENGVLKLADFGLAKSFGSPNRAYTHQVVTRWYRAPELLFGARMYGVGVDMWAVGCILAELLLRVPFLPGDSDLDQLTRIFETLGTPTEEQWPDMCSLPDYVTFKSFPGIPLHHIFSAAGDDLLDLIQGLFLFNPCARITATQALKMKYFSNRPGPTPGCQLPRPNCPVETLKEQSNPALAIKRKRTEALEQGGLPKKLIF
Chain of recombinant purified human CDK7 kinase (P51946 whole entry partner): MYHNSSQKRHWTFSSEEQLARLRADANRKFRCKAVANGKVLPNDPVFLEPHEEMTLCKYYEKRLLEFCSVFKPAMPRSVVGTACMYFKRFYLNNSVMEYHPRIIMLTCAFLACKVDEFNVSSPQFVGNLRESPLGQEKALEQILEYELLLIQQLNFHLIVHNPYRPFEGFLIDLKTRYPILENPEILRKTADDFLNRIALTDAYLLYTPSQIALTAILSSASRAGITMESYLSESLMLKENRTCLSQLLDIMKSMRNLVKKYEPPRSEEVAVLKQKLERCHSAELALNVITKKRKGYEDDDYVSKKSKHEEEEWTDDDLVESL
Chain of recombinant purified human CDK7 kinase (P51948 whole entry partner): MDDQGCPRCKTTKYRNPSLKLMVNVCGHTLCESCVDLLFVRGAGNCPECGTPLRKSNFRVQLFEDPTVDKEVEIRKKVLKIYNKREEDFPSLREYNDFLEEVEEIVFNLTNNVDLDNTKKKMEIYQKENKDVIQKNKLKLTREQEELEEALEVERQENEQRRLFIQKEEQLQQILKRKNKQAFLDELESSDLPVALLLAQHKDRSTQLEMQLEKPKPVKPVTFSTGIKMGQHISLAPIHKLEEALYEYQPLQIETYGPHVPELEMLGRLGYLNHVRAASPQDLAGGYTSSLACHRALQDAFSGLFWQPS
Method: Representative compounds of the present invention were assayed in vitro for CDK7 kinase-inhibitory activities using ADP-Glo platform. In detail, CDK7 kinase-inhibitory activity was measured using recombinant purified human CDK7 kinase (ThermoFisher, PV3868) and ADP Glo kinase assays kit (Promega, V9102). CDK7 kinase was diluted with 1× kinase reaction buffer (40 mM Tris-C1, pH 7.5, 20 mM MgCl2, 0.1 mg/ml BSA and 50 [M DTT) and added to 96 well plates (final concentration of CDK7 per reaction: 50 ng). The compound was finally treated to be a 1% DMSO aqueous solution, and a substrate cocktail containing ATP (final concentration of 90 [M) and 0.2 μg/μl of MBP (Myelin basic protein) in a total of 25 μl of reaction mass was added to 96 well plates, thereby initiating an enzymatic reaction. After 2 hours of incubation (30° C.), equivalent volume (25 μl per reaction) of ADP Glo was added and incubated (30° C.) at room temperature for 60 minutes. The kinase detection reagent (50 μl per reaction) was then added and incubated (30° C.) at room temperature for 30 minutes. The kinase activity was measured by chemiluminescence method according to ADP Glo Kanease Assay Kit instruction manual, and the CDK7-inhibitory activity of the compounds according to the present invention was calculated. The result analysis of each compound was performed using Microsoft Excel, and IC50 values were calculated by Prism software.

MDA-MB-468 cells [3] = experiment: Anti-proliferative effect on MDA-MB-468 cells, inhibition rate at 100 nM (tetrazolium salt method); format: cell-based; conditions: Homo sapiens, 72 hours
Method: Representative compounds of the present invention were tested at different concentrations (from 1000 nM to 25 nM) to assess their ability to inhibit the proliferation of MDA-MB-468 cells. Cells were grown in RPMI 1640 (Welgene)+10% FBS (Gibco)+1% penicillin/streptomycin (Gibco) and cultured at 37° C. in a humidified chamber in the presence of 5% CO2.
MDA-MB-468 cells cultured in 96-well cell culture plates were treated with representative compounds of the present invention and cultured for 72 hours.

CDK5 = CDK5 (Homo sapiens (Human), UniProt Q00535); experiment: scanMAX Kinase Assay Panel, CDK5; format: binding; conditions: read-out: % inhibition at 1 uM CDK5, compound at 1 uM
Chain of CDK5 (Q00535 whole entry): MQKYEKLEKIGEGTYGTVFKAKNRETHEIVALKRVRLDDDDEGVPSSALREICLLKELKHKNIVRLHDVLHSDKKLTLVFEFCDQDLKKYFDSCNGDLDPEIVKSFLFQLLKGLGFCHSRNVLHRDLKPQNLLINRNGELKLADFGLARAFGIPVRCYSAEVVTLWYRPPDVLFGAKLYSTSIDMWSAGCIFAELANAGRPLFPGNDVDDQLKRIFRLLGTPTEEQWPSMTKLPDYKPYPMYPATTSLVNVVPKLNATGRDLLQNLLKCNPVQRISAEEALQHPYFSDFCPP
Method: (§1) The assay (scanMAX Kinase Assay Panel) was performed. […] Kinase Assay Panel contains a set of 468 kinases including CDK2, CDK5. The compounds were screened at 1 [M, and results for binding interactions are reported compared to control (%).

CDK2 = CDK2 (Homo sapiens (Human), UniProt P24941); experiment: scanMAX Kinase Assay Panel, CDK2; format: binding; conditions: read-out: % inhibition at 1 uM CDK2, compound at 1 uM
Method: as §1

CDK7 = CDK7 (Homo sapiens (Human), UniProt P50613); experiment: scanMAX Kinase Assay Panel, CDK7; format: binding; conditions: read-out: % inhibition at 1 uM CDK7, compound at 1 uM
Chain of CDK7 (P50613 whole entry): as the sequence (P50613 whole entry) above
Method: as §1

IC50 (MDA-MB-468 cells [1]; Homo sapiens, MDA-MB-468, 72 h) | IC50 (HepG2 cells; Homo sapiens, HepG2, 72 h) | IC50 [2] | SMILES | also measured
20 nM | 2 nM | 17 nM | CC(C(=O)Nc1ncc(C(F)(F)F)s1)c1cncc(-c2cnc(NC(=O)/C=C/CN(C)C)cn2)c1 (stereo not shown) [Example 63, (E)-4-(dimethylamino)-N-(5-(5-(1-oxo-1-((5-(trifluoromethyl)thiazol-2-yl)amino)propan-2-yl)pyridin-3-yl)pyrazin-2-yl)but-2-enamide] | –
56 nM | – | 15 nM | C[C@H](C(=O)Nc1ncc(C(F)(F)F)s1)c1cccc(-c2cnc(NC(=O)/C=C/CN3CC[C@H](F)C3)cn2)c1 [Example 117, (E)-4-((S)-3-fluoropyrrolidin-1-yl)-N-(5-(3-((S)-1-oxo-1-((5-(trifluoromethyl)thiazol-2-yl)amino)propan-2-yl)phenyl)pyrazin-2-yl)but-2-enamide] | –
44 nM | – | 9 nM | C[C@H](C(=O)Nc1ncc(C(F)(F)F)s1)c1cccc(-c2cnc(NC(=O)/C=C/CN3CCC(O)C3)cn2)c1 (stereo partly drawn) [Example 119, (E)-4-(3-hydroxypyrrolidin-1-yl)-N-(5-(3-((S)-1-oxo-1-((5-(trifluoromethyl)thiazol-2-yl)amino)propan-2-yl)phenyl)pyrazin-2-yl)but-2-enamide] | –
– | – | 19 nM | C=CC(=O)Nc1cnc(-c2cncc([C@H](C)C(=O)Nc3ncc(C(F)(F)F)s3)c2)cn1 [Example 52, (S)-N-(5-(5-(1-oxo-1-((5-(trifluoromethyl)thiazol-2-yl)amino)propan-2-yl)pyridin-3-yl)pyrazin-2-yl)acrylamide] | inhibition at 0.1 µM (MDA-MB-468 cells [3]): 72%
35 nM | – | 43 nM | CC(C(=O)Nc1ncc(Cl)s1)c1cncc(-c2cnc(NC(=O)/C=C/CN(C)C)cn2)c1 (stereo not shown) [Example 73, (E)-N-(5-(5-(1-((5-chlorothiazol-2-yl)amino)-1-oxopropan-2-yl)pyridin-3-yl)pyrazin-2-yl)-4-(dimethylamino)but-2-enamide] | –
65 nM | – | 13 nM | C[C@H](C(=O)Nc1ncc(C(F)(F)F)s1)c1cccc(-c2ccc(NC(=O)/C=C/CN(C)C)nc2)c1 [Example 116, (S,E)-4-(dimethylamino)-N-(5-(3-(1-oxo-1-((5-(trifluoromethyl)thiazol-2-yl)amino)propan-2-yl)phenyl)pyridin-2-yl)but-2-enamide] | –
10 nM | 8 nM | 22 nM | C=CC(=O)Nc1cnc(-c2cncc(C(C)C(=O)Nc3ncc(C(F)(F)F)s3)c2)cn1 (stereo not shown) [Example 45, N-(5-(5-(1-oxo-1-((5-(trifluoromethyl)thiazol-2-yl)amino)propan-2-yl)pyridin-3-yl)pyrazin-2-yl)acrylamide] | inhibition at 0.1 µM (MDA-MB-468 cells [3]): 59%
57 nM | – | 80 nM | C[C@H](C(=O)Nc1ncc(C(F)(F)F)s1)c1cccc(-c2cnc(NC(=O)/C=C/CN3CCN(C)CC3)cn2)c1 [Example 95, (S,E)-4-(4-methylpiperazin-1-yl)-N-(5-(3-(1-oxo-1-((5-(trifluoromethyl)thiazol-2-yl)amino)propan-2-yl)phenyl)pyrazin-2-yl)but-2-enamide] | –
30 nM | 5 nM | 7 nM | C[C@H](C(=O)Nc1ncc(C(F)(F)F)s1)c1cccc(-c2cnc(NC(=O)/C=C/CN(C)C)c(C#N)c2)c1 [Example 101, (S,E)-N-(3-cyano-5-(3-(1-oxo-1-((5-(trifluoromethyl)thiazol-2-yl)amino)propan-2-yl)phenyl)pyridin-2-yl)-4-(dimethylamino)but-2-enamide] | inhibition at 1 µM (CDK5): 22%; inhibition at 1 µM (CDK2): 26%; inhibition at 1 µM (CDK7): 99%
33 nM | – | 13 nM | CCc1cnc(NC(=O)[C@@H](C)c2cccc(-c3cnc(NC(=O)/C=C/CN(C)C)c(C)c3)c2)s1 [Example 125] | –
40 nM | 8 nM | 17 nM | C=CC(=O)Nc1cnc(-c2cccc([C@H](C)C(=O)Nc3ncc(C(F)(F)F)s3)c2)cn1 [Example 37, (S)-N-(5-(3-(1-oxo-1-((5-(trifluoromethyl)thiazol-2-yl)amino)propan-2-yl)phenyl)pyrazin-2-yl)acrylamide] | inhibition at 0.1 µM (MDA-MB-468 cells [3]): 60%
23 nM | 3 nM | 7 nM | CCc1cnc(NC(=O)[C@@H](C)c2cccc(-c3cnc(NC(=O)/C=C/CN(C)C)c(C#N)c3)c2)s1 [Example 121, (S,E)-N-(3-cyano-5-(3-(1-((5-ethylthiazol-2-yl)amino)-1-oxopropan-2-yl)phenyl)pyridin-2-yl)-4-(dimethylamino)but-2-enamide] | inhibition at 1 µM (CDK5): 30%; inhibition at 1 µM (CDK2): 20%; inhibition at 1 µM (CDK7): 99%
18 nM | 3.8 nM | 8 nM | CCc1cnc(NC(=O)[C@@H](C)c2cccc(-c3cnc(NC(=O)/C=C/CN(C)C)c(F)c3)c2)s1 [Example 130, (S,E)-4-(dimethylamino)-N-(5-(3-(1-((5-ethylthiazol-2-yl)amino)-1-oxopropan-2-yl)phenyl)-3-fluoropyridin-2-yl)but-2-enamide] | –
– | – | 8 nM | C[C@H](C(=O)Nc1ncc(C(F)(F)F)s1)c1cccc(-c2cnc(NC(=O)/C=C/CN(C)C)cn2)c1 [Example 91, (S,E)-4-(dimethylamino)-N-(5-(3-(1-oxo-1-((5-(trifluoromethyl)thiazol-2-yl)amino)propan-2-yl)phenyl)pyrazin-2-yl)but-2-enamide] | IC50 (MDA-MB-468 cells [1]; 72 hours): 38 nM; IC50 (HepG2 cells; 72 hours): 9.5 nM

From patent US12110299B2, “Thiazole derivatives and pharmaceutically acceptable salts thereof” (YUNGJIN PHARM. CO., LTD., priority 2018, dated 2024)
